Measured values from patent US5905085A, “Trans cyclopentanyl deazaadenyl analogs useful as immunosuppressants” (Hoechst Marion Roussel, Inc., priority 1997, dated 1999).
Where a name gives a salt, the structure may show the parent alone.

Experiments:
[1] = test system: Tumor Necrosis Factor alpha; experiment: Inhibition of Tumor Necrosis Factor alpha in LPS-stimulated PBMC (ELISA); format: cell-based; conditions: human PBMC adherent cells, 1 μg/ml LPS from E. coli, 18 hours; read-out: IC50 (TNF-α inhibition)
Procedure: Peripheral blood mononuclear cells (PBMC) are isolated from venous blood collected from healthy volunteers in sodium citrate (5 ml of 3.6% sodium citrate for 45 ml of blood) by density gradient centrifugation of 5 minutes at 1500 rpm. The PBMC are resuspended in about 10 ml of RPMI-1640 with antibiotics. Approximately 2×10^6 cells of PBMC are added to tissue culture plates, incubated for 45-60 minutes at 37° C. with 5% CO2, aspirated, and washed twice by adding about 0.5 ml fresh RPMI-1640 with 10% non-mitogenic FBS (RPMI complete) and shaking for 15 to 30 seconds. 1.0 ml RPMI-1640 is added per well to the remaining adherent cells, which are pretreated with test compound solution about 15 minutes prior to endotoxin stimulation (1 μg/ml lipopolysaccharide from E. coli or solvent concentrations equal to those of test compounds.
Cultures are incubated for 18 hours t 37° C. in 5% CO2. Supernatants are tested from TNF-a using a commercial ELISA kit (Cistron, Pine Brook, N.J.). The IC50 is determined using SOFTmax software program.

[2] = test system: rat macrophage antigen presentation to LEW/N rat T-cell hybridoma (Interleukin-2 production); experiment: Regulation of antigen presentation to rat T-cell hybridoma (Interleukin-2 production); format: cell-based
Procedure: Using the method of Ku (Cellular Immunology 130,(1990)) and a Lewis (LEW/N) rat T-cell hybridoma reactive with the protein methylated bovine serum albumin (mBSA), the ability of a compound of formula (1) to regulate M.phi. antigen presentation in vitro may be measured. Peritoneal macrophages obtained from LEW/N rats are plated into tissue culture and treated with 100 ug of mBSA and drug A control is prepared similarly. After a period of 18 hours the cells are washed and incubated with the T-cell hybridoma for an additional 12 hours. Supernatants from these cultures are obtained and measured for content of Interleukin-2, a T-cell derived lymphokine which is produced by activated T-cells. […] Rat macrophage antigen presentation and the subsequent production of Interleukin-2 are inhibited when drug is administered over a concentration range from 0.1 to 100 uM as illustrated in the following table.

[3] = test system: endotoxin-induced septic shock in CFl mice; experiment: Regulation of endotoxin lethality (mouse endotoxin lethality model); format: in vivo; conditions: 100 mg/kg i.p., pretreated at t = -1 hr; challenge D-galactosamine 18 mg and LPS 50 ng; observed 8-72 hour
Procedure: Using the method of Silverstein, (J. Exp. Med. 173, 357 (1991)) a mouse endotoxin lethality model may be used to determine if a compound of formula (1) has the ability to inhibit endotoxin-induced septic shock which is dependent on the production of Tumor Necrosis Factor-α (TNF-α). CFl mice pretreated at time (t)=-1 hr with drug are challenged with 18 mg of D-glactoseamine and 50 ng of LPS, then observed for death over an 8-72 hour period.

[4] = test system: MHC class II antigen on rat macrophages; experiment: Regulation of MHC class II expression on macrophages (flow cytometry, OX-6/OX-42); format: cell-based
Procedure: Using the method of Edwards (J. of Cell Biochemistry 5E, 155(1991)), the ability of a compound of formula (1) to reduce Major Histocompatibility complex (MHC) class II antigen levels on macrophages (M.phi.) obtained from M.tuberculosis-treated rats may be measured. Cells obtained from treated rats are plated into tissue culture for a period of 4 hours to purify adherent cells, then treated with increasing levels of drug for a period of 18 hours. After this incubation period, cells are scraped from the dishes and stained using flow cytometry analysis with various monoclonal antibodies such as OX-6 a monoclonal antibody specific for MHC class II antigens and OX-42 a monoclonal antibody specific for rat macrophages.

Structure (SMILES)	IC50 [1] [µM]	inhibition at 0.1 µM ([2]; Rattus norvegicus, T-cell, in vitro concentration 0.1 μM) [%]	inhibition at 1 µM ([2]; Rattus norvegicus, T-cell, in vitro concentration 1.0 μM) [%]	inhibition at 10 µM ([2]; Rattus norvegicus, T-cell, in vitro concentration 10.0 μM) [%]	inhibition at 100 µM ([2]; Rattus norvegicus, T-cell, in vitro concentration 100.0 μM) [%]	Rat macrophage antigen presentation and subsequent production of Interleukin-2 ([2]; concentration range from 0.1 to 100 uM)	T-cell activation ([2]; in vitro, mBSA antigen, rat T-cell hybridoma)	protection against endotoxin lethality [3]	OX-6/OX-42 double positive macrophages ([4]; 10 μM, 18 hours, positive control 59%) [%]	inhibition at 10 µM ([4]; Rattus norvegicus, Macrophage, 18 h, read-out: reduction of MHC II antigen expression on rat macrophages in vitro compared to positive control) [%]
Nc1nc(Cl)nc2c1ncn2[C@@H]1CC[C@@H](O)C1 [(1R,3R)-Trans-1-[9-(6-amino-2-cholopurinyl)]cyclopentan-3-ol hydrochloride]	4.1	–	–	–	–	–	–	–	–	–
Nc1ncnc2c1ncn2[C@@H]1CC[C@@H](O)C1 [(1R,3R)-TRANS-1(9-ADENYL)CYCLOPENTAN-3-OL HYDROCHLORIDE]	9	7.6	30.9	48.7	55.3	inhibited	inhibits T-cell activation	protects against endotoxin lethality	39	~33
Nc1ncnc2c1ncn2[C@@H]1CCC[C@H]1O (relative stereo) [(±)-Trans-1-(9-adenyl)-2-hydroxycyclopentane, reference compound]	22.2	–	–	–	–	–	–	–	–	–
